# Test results from patent EP4775574A1, “FURAN RING-CONTAINING COMPOUND, PHARMACEUTICAL COMPOSITION THEREOF, AND USE THEREOF” (Wuhan Xirui Pharmaceutical Technology Co., Ltd, priority 2023, dated 2025).
# Like-named read-outs stand apart in the source and are kept apart here.
# How the values were obtained:
# Nav1.2 = Nav1.2 (Homo sapiens, UniProt Q99250); assay: Sodium channel selectivity test, patch-clamp, Nav1.2; assay type: cell-based; details: read-out: Nav1.2 Inhibition rate (%)
# From the text: (§1) Test Example 3: Selectivity test of the compounds of the present disclosure on sodium channels • 1. Experimental objective: The effects of the compounds on the current of the voltage-gated sodium channel (NaV) subtypes 1.1-1.7 were detected by patch-clamp technique • 2. Experimental materials and instruments • 2.1 Cell lines: CHO/HEK293 cell lines stably expressing Nav1.1-1.7 sodium channels, constructed in-house by the laboratory of Beijing ICE Bioscience Co., Ltd., (Reference: Jarvis MF, Honore P, Shieh CC, Chapman M, Joshi S, Zhang XF, Kort M, Carroll W, Marron B, Atkinson R, Thomas J, Liu D, Krambis M, Liu Y, McGaraughty S, Chu K, Roeloffs R, Zhong C, Mikusa JP, Hernandez G, Gauvin D, Wade C, Zhu C, Pai M, Scanio M, Shi L, Drizin I, Gregg R, Matulenko M, Hakeem A, Gross M, Johnson M, Marsh K, Wagoner PK, Sullivan JP, Faltynek CR, Krafte DS. A-803467, a potent and selective Nav1.8 sodium channel blocker, attenuates neuropathic and inflammatory pain in the rat. Proc Natl Acad Sci U S A. 2007 May 15;104(20):8520-5. doi: 10.1073/pnas.0611364104. Epub 2007 May 2. PMID: 17483457; PMCID: PMC1895982.), gene information Nav1.1: NM_006920; Nav1.2: NM_001040142; Nav1.3: NM_006922; Nav1.4: NM_000334; Nav1.5: NM198056; Nav1.6: NM014191; Nav1.7: […]. • 2.2 Compounds: Dissolved in DMSO, with sample concentration prepared at 30 µM. • 3. Experimental methods • 3.1 Cell culture • (1) Maintenance medium: CHO cells were cultured in HAM'S/F-12 medium containing 10% fetal bovine serum, 100 µg/mL Zeocin, and 10 µg/mL Blasticidin, under conditions of 37°C incubation temperature and 5% carbon dioxide concentration. HEK-293 cells were cultured in DMEM medium containing 10% fetal bovine serum and 800 µg/mL G418; the culture temperature was 37°C, and the carbon dioxide concentration was 5%. • (2) Cell passage: The old medium was removed, and the cells were washed once with PBS, then 1 mL of 0.25%-Trypsin-EDTA solution was added and incubated at 37°C for approximately 1.5 min. When the cells were detached from the bottom of the dish, about 5 mL of preheated complete medium at 37°C was added. […]
# Nav1.4 = Nav1.4 (Homo sapiens, UniProt P35499); assay: Sodium channel selectivity test, patch-clamp, Nav1.4; assay type: cell-based; details: read-out: Nav1.4 Inhibition rate (%)
# From the text: as §1
# Nav1.5 = Nav1.5 (Homo sapiens, UniProt Q14524); assay: Sodium channel selectivity test, patch-clamp, Nav1.5; assay type: cell-based; details: read-out: Nav1.5 Inhibition rate (%)
# From the text: as §1
# Nav1.6 = Nav1.6 (Homo sapiens, UniProt Q9UQD0); assay: Sodium channel selectivity test, patch-clamp, Nav1.6; assay type: cell-based; details: read-out: Nav1.6 Inhibition rate (%)
# From the text: as §1
# [1] = Pharmacokinetic determination in SD rats; assay type: in vivo; details: rat, po, gavage 10 mg/kg, plasma; for half-life: read-out: Half-life t1/2 (converted); for Cmax: read-out: Peak concentration Cmax; for Tmax: read-out: Time to peak Tmax
# Description: SD rats were used as test animals to study the pharmacokinetic behavior in rat plasma after oral administration of the compound example of the present disclosure at a dose of 10 mg/kg.
# Male SPF-grade SD rats, with body weight (200 ± 20) g.
# Drug preparation: The drug concentration was prepared as 1 mg/mL, and the preparation solvent was Tween80 + 0.5% MC (v/v 1:99).
# Male SPF-grade SD rats were administered by gavage after adaptive feeding for 3-4 days, with an administration dose of 10 mg/kg and an administration volume of 10 mL/kg.
# Blood samples were collected from rats before administration (0 h) and after administration at 0.5 h, 1 h, 1.5 h, 2 h, 3 h, 4 h, 6 h, 8 h, 10 h, 12 h, and 24 h. Blood, approximately 0.2 mL, was collected by retro-orbital puncture and placed into EDTA-K2 anticoagulant tubes with labels. After blood collection, the tubes were gently and completely inverted three times to mix with the anticoagulant. The samples were then immediately placed in an ice-water bath and centrifuged at 4500 rpm for 10 min at 4°C. After centrifugation, the plasma was promptly aliquoted into EP tubes with corresponding labels and stored in a -80°C freezer.
# After administration, 20 µL of rat plasma was taken and placed into a 96-deep-well plate pre-filled with 20 µL of internal standard working solution. Methanol (400 µL) as the precipitating agent was added, vortexed for 10 min, and centrifuged at 4000 rpm for 15 min. A supernatant of 200 µL was transferred into another 96-deep-well plate pre-filled with 200 µL of ultrapure water, vortexed for 5 min, and centrifuged at 4000 rpm for 3 min. A supernatant of 5 µL was taken for LC-MS/MS analysis of plasma drug concentration.
# The main pharmacokinetic parameters were calculated by WinNonlin 7.0, and the pharmacokinetic experimental results of rats are shown in Table 4 below. Table 4: Pharmacokinetic experimental results of rats
# [2] = system: KM mouse acetic acid-induced writhing model; assay: Analgesic efficacy in mouse acetic acid-induced writhing model; assay type: in vivo, KM mice; details: single dose, writhes within 20 min, p < 0.05 vs solvent control
# Description: 1. Objective: The analgesic efficacy of the example was evaluated in a KM mouse acetic acid-induced writhing model. 2. Experimental methods: 2.1 Experimental drugs: The compounds in examples of the present disclosure and reference compound were self-prepared. […] It was prepared using a solvent (Tween 80 + 0.5% MC (v:v = 1:99 pH = 3)). 2.2 Experimental animals: Male KM mice were purchased from Hubei Provincial Center for Disease Control and Prevention (Hubei Provincial Academy of Preventive Medicine), weighing 20 to 25 g at the time of purchase. 2.3 Experimental grouping: Table 6: Efficacy test grouping of compounds in the acetic acid-induced writhing model
# 2.5 Data collection and analysis • Data were collected using Excel software. • Data were analyzed using Prism (Graph pad software, Inc.) software. 3.
# [3] = 30 mg/kg intragastric, second group set (solvent control 20.11 ± 3.55)
# [4] = 100 mg/kg intragastric, second group set (solvent control 20.11 ± 3.55)
# Sequence of Nav1.2 (Q99250 whole entry): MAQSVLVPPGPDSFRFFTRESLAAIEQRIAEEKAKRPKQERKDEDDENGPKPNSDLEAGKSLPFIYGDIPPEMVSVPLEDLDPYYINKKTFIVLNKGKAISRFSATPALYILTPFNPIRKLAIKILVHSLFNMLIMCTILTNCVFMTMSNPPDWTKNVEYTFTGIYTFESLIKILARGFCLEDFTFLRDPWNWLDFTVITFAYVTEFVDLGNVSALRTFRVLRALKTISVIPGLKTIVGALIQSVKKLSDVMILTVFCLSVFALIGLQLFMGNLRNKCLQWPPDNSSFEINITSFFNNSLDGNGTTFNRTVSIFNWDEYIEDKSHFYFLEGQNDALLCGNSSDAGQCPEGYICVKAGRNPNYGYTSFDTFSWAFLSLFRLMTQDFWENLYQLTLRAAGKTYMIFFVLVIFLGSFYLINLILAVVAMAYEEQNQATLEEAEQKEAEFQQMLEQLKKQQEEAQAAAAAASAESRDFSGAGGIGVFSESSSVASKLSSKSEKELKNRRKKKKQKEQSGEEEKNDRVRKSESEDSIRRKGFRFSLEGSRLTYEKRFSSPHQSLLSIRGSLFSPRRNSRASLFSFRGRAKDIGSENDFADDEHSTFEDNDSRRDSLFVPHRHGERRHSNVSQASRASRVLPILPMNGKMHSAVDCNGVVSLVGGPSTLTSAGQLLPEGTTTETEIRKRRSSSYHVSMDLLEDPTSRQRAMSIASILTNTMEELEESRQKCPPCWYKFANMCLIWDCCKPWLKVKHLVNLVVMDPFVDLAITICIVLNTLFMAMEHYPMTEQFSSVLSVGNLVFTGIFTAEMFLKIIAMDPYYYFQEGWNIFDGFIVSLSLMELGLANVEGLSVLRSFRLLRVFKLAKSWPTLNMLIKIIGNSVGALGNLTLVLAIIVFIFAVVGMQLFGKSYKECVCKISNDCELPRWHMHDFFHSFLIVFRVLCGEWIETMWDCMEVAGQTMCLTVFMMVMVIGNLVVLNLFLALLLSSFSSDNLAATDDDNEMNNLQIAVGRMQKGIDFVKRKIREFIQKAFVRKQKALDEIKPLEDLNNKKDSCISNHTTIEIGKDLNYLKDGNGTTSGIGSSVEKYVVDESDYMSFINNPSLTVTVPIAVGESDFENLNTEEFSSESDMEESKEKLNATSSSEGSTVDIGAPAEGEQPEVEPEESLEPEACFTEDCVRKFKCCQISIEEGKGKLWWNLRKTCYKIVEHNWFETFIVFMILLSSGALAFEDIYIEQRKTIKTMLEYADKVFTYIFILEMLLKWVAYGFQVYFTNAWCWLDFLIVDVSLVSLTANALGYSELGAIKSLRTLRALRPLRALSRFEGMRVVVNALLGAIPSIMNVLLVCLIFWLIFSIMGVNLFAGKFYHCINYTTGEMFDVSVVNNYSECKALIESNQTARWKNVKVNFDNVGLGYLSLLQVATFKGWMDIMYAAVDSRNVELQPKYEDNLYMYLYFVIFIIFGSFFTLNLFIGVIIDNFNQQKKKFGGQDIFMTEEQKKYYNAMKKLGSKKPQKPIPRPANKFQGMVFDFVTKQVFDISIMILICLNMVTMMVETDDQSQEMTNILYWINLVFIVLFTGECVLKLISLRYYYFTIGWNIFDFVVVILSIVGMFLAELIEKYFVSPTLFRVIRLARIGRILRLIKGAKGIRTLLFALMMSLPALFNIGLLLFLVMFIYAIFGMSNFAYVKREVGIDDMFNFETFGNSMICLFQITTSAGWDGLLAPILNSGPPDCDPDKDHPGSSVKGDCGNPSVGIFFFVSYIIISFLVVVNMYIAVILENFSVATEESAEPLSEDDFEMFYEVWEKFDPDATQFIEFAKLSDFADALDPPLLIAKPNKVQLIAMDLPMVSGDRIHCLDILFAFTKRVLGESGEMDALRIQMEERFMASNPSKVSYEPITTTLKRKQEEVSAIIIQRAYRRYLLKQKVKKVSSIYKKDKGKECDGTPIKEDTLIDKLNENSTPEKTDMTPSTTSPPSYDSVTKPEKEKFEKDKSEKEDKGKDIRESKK
# Sequence of Nav1.6 (Q9UQD0 whole entry): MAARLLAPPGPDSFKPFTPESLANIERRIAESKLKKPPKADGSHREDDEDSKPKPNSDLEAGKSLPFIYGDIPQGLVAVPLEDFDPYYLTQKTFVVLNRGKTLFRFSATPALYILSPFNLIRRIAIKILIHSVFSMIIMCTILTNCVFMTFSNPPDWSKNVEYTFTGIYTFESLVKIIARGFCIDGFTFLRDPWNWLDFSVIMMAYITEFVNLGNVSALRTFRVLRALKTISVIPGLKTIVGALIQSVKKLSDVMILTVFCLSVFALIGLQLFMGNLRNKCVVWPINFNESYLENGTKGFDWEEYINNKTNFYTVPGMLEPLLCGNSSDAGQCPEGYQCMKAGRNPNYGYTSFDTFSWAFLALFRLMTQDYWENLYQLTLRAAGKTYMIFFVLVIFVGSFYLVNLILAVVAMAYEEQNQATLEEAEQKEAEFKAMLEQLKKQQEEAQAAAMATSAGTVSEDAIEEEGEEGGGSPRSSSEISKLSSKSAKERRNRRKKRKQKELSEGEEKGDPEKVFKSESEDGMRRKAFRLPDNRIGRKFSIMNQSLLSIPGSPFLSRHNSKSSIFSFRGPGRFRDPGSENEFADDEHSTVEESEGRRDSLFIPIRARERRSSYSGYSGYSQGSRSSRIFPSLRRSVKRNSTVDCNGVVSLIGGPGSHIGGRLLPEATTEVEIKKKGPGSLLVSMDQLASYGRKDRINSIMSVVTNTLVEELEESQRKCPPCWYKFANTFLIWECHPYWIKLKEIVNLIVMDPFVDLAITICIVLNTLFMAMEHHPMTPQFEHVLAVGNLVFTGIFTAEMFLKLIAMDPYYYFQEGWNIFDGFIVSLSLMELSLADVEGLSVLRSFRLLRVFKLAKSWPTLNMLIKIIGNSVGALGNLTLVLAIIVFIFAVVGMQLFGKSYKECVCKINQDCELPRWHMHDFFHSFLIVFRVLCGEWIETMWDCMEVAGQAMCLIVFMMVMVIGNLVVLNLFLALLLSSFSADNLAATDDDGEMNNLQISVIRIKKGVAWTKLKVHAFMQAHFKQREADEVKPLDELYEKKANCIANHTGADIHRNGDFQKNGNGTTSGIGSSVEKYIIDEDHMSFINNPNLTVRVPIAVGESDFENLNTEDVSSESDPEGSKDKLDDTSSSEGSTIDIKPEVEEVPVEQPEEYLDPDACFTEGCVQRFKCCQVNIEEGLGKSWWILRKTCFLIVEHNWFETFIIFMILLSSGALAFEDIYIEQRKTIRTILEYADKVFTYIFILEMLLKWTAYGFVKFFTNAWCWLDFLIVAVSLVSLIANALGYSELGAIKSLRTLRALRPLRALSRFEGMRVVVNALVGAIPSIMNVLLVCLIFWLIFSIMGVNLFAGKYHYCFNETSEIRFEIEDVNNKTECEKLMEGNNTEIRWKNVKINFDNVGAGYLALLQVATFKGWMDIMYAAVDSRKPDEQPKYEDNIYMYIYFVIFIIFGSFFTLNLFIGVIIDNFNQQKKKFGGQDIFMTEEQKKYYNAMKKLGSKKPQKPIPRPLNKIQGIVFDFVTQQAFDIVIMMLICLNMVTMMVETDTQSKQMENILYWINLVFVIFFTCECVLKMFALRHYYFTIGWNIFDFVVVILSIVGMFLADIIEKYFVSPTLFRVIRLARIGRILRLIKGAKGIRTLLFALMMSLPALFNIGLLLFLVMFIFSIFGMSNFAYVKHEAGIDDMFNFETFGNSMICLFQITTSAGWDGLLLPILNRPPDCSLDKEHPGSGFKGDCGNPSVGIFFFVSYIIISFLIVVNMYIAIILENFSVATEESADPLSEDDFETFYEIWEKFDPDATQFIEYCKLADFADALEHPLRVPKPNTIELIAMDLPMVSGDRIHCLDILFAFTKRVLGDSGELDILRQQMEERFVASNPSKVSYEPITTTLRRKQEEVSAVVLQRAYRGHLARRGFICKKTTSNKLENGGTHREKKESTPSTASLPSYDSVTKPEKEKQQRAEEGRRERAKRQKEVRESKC
smiles,measurement,setting,value
C[C@H]1[C@@H](c2ccc(F)c(F)c2OC2COC2)[C@H](C(=O)Nc2ccc(F)c(C(=N)NO)c2)O[C@@]1(C)C(F)(F)F [Example 11],inhibition at 30 µM,Nav1.2,16%
same,inhibition at 30 µM,Nav1.4,8.45%
same,inhibition at 30 µM,Nav1.5; cho/hek293 cells,9.11%
same,inhibition at 30 µM,Nav1.6,19.5%
same,AUC(0-t),[1]; read-out: Area under the curve AUC0-t,2080 ± 201 ng·h/mL
same,half-life,[1],51 ± 4.2 min
same,Cmax,[1],1040 ± 260 ng/mL
same,Tmax,[1],45 ± 30 min
same,Number of writhes,[2]; [3],11.56 ± 5.15
same,Number of writhes,[2]; [4],8.38 ± 6.12
"COc1c([C@H]2[C@H](C(=O)Nc3ccnc(C(N)=O)c3)O[C@@](C)(C(F)(F)F)[C@H]2C)ccc(F)c1F [Reference compound, reference compound]",inhibition at 30 µM,Nav1.2,53.6%
same,inhibition at 30 µM,Nav1.4,83.6%
same,inhibition at 30 µM,Nav1.5; human,72.2%
same,inhibition at 30 µM,Nav1.6,42.9%
same,AUC(0-t),"[1]; male, read-out: Area under the curve AUC0-t",608 ± 362 ng·h/mL
same,half-life,[1]; male,79.2 ± 10.2 min
same,Cmax,[1]; male,216 ± 124 ng/mL
same,Tmax,[1]; male,37.8 ± 15 min
same,Number of writhes,[2]; [3],11.86 ± 3.53
same,Number of writhes,[2]; [4],10.13 ± 3.64
COCCOc1c([C@H]2[C@H](C(=O)Nc3ccc(F)c(C(=N)NO)c3)O[C@@](C)(C(F)(F)F)[C@H]2C)ccc(F)c1F [Example 10],inhibition at 30 µM,Nav1.2,32.8%
same,inhibition at 30 µM,Nav1.4,75.4%
same,inhibition at 30 µM,"Nav1.5; human, cho/hek293 cells",51.7%
same,inhibition at 30 µM,Nav1.6,36%
same,AUC(0-t) at 24 h,"[1]; in vivo, read-out: Area under the curve AUC0-t",4650 ± 1600 ng·h/mL
same,half-life,[1]; in vivo,96 ± 16.2 min
same,Cmax,[1]; in vivo,1240 ± 326 ng/mL
same,Tmax,[1]; in vivo,52.8 ± 15 min
same,Number of writhes,"[2]; 30 mg/kg intragastric, first group set (solvent control 16.11 ± 5.84)",12.10 ± 6.10
